The text below walks through data of patent publication US11945812B2, “Annulated 2-amino-3-cyano thiophenes and derivatives for the treatment of cancer” (Boehringer Ingelheim International GmbH, priority 2020, dated 2024).

Like-named read-outs stand apart in the source and are kept apart here.

Data set [1] deals with T1, KRAS G12C::SOS1 protein-protein interaction (Homo sapiens, UniProt P01116, C118S/C51S/C80L/G12C).
T1 construct: His6 (N); host or cells: E. coli
As to the kind of experiment: KRAS::SOS1 AlphaScreen binding assay. The conditions noted are these: KRAS G12C::SOS1 AlphaScreen. The source says: KRAS::SOS1 AlphaScreen Binding Assay
Reagents: • GST-tagged SOS1 (564_1049_GST_TEV_ECO) produced in-house • GST-TEV-SOS1 (564-1049) is purchased from Viva Biotech Ltd. • The expression construct of KRAS G12C (amino acids 1-169 of reference sequence P01116-2 (uniprot), with additional mutations: C51S, C80L, and C118S) containing a C-terminal avi-tag was obtained by gene synthesis (GeneArt, Thermo Fisher) in donor vector (pDONR-221) and transferred by recombinant cloning into pDEST17 vector bearing an N-terminal His6-tag. The protein was expressed in E. coli and the purified protein was biotinylated with the E. coli biotin ligase (BirA) before usage. • GDP (Sigma Cat No G7127) • AlphaLISA Glutathione Acceptor Beads (PerkinElmer, Cat No AL109) • AlphaScreen Streptavidin Donor Beads (PerkinElmer Cat No 6760002) • Assay plates: Proxiplate-384 PLUS, white (PerkinElmer, Cat No 6008289)
Assay Buffer: • 1×PBS • 0.1% BSA • 0.05% Tween 20
7.5 nM (final assay concentration) KRAS G12C, 10 μM (final assay concentration) GDP and 5 nM (final assay concentration) GST-SOS1 are mixed in assay buffer prior to use and kept at room temperature.
AlphaLISA Glutathione Acceptor Beads and AlphaScreen Streptavidin Donor Beads are mixed in assay buffer at a concentration of 10 μg/mL (final assay concentration) each prior to use and kept at room temperature.
Compounds are diluted to a final start concentration of 100 μM and are tested in duplicate. Assay-ready plates (ARPs) are generated using an Access Labcyte Workstation with a Labcyte Echo 550 or 555 accoustic dispenser. For compound a start concentration of 100 μM, 150 nL of compound solution is transferred per well in 11 concentrations in duplicate with serial 1:5 dilutions.
The assay is run using a fully automated robotic system in a darkened room below 100 Lux. 10 μL of KRAS::SOS1 GDP mix is added into columns 1-24 to the 150 nL of compound solution (final dilution in the assay 1:100, final DMSO concentration 1%).
After 30 minutes incubation time 5 μL of bead mix is added into columns 1-23. Plates are kept at room temperature in a darkened incubator. After further 60 minutes incubation, the signal is measured using a PerkinElmer Envision HTS Multilabel Reader using the AlphaScreen specifications from PerkinElmer. Each plate contains the following controls: • diluted DMSO+KRAS::SOS1 GDP mix+bead mix • diluted DMSO+KRAS::SOS1 GDP mix
IC50 values are calculated and analyzed using a 4 parametric logistic model.
Tables of example compounds disclosed herein contain IC50 values determined using the above assay.
A general note: Alpha assays give light when donor and acceptor beads are brought close together.

Data set [2] relates to ERK phosphorylation in NCI-H358_Cas9_SOS2. In words: ERK phosphorylation assay 2 (AlphaLISA SureFire Ultra p-ERK1/2), SOS2 knock-out. Type of data set: cell-based. The conditions noted are these: Homo sapiens, NCI-H358; assay 2 (marked with *); read-out: IC50 H358 pERK. The source says:
ERK Phosphorylation Assay
Materials Used for the Assay;

Data set [3] in a line: Plasma protein binding (equilibrium dialysis), human plasma. The class given is in vitro ADME. The conditions noted are these: read-out: PPB human fu. As to the method:
(§1) Plasma Protein Binding (PPB)
(§2) Binding of test compound to plasma was determined using equilibrium dialysis (ED) and quantitative mass spectrometry interfaced with liquid chromatography (LC-MS). In brief, ED was performed with dialysis devices consisting of two chambers separated by a semipermeable membrane with a molecular weight cut-off of 5-10 kg/mol. One chamber was filled with commercially sourced plasma (mouse and human plasma, respectively) or serum (10% FCS in PBS) containing 1-10 μmol/L test compound and the other chamber was filled with phosphate-buffer saline (PBS) with or without dextran. The dialysis chamber was incubated for 3-5 hours at 37° C. After incubation, protein was precipitated from aliquots of each chamber and the concentration of test compound in the supernatant of the plasma-containing compartment (cplasma) and of the buffer-containing compartment (Cbuffer) was determined by LC-MS. The fraction of unbound test compound (not bound to plasma) (fu) was calculated according to the following equation: […]

Data set [4] is described as follows: Plasma protein binding (equilibrium dialysis), mouse plasma. The class given is in vitro ADME. The conditions noted are these: read-out: PPB mouse fu. As to the method: as §1, §2
Data set [5] deals with Ba/F3 cells bearing a KRAS G12C mutation (Homo sapiens, UniProt P01116, G12C, cells depend on it). As to the kind of experiment: Ba/F3 cell model proliferation assay (AlamarBlue, 72 h). The class given is cell-based. As to the method: Ba/F3 Cell Model Generation and Proliferation Assay
Plasmids containing KRASG12 mutants were obtained from GeneScript. To generate KRASG12-dependent Ba/F3 models, Ba/F3 cells were transduced with retroviruses containing vectors that harbor KRASG12 isoforms. Platinum-E cells (Cell Biolabs) were used for retrovirus packaging. Retrovirus was added to Ba/F3 cells. To ensure infection, 4 μg/mL polybrene was added and cells were spinfected. […] Cells with an infection efficiency of 10% to 20% were further cultivated and puromycin selection with 1 μg/mL was initiated. As a control, parental Ba/F3 cells were used to show selection status. Selection was considered successful when parental Ba/F3 cells cultures died. To evaluate the transforming potential of KRASG12 mutations, the growth medium was no longer supplemented with IL-3. Ba/F3 cells harboring the empty vector were used as a control. Approximately ten days before conducting the experiments, puromycin was left out.
All treatments were performed in technical duplicates. The assay is run using a fully automated robotic system. Treated cells were incubated for 72 h at 37° C. with 5% CO2. AlamarBlue™ (ThermoFisher), a viability stain, was added and fluorescence measured in the PerkinElmer Envision HTS Multilabel Reader.
(In general: Alamar Blue is a resazurin reagent that responds to reducing activity.)

The nature of data set [6]: Plasma protein binding (equilibrium dialysis), serum 10% FCS in PBS. The class given is in vitro ADME. The conditions noted are these: bovine, 10% FCS in PBS (serum), read-out: PPB 10% FCS fu. The protocol:
as §1, §2

Where [7] appears, read: Ba/F3 KRAS G12C cells, 72 h, 10% FCS, uncorrected, read-out: IC50 Ba/F3 KRASG12C.
Where [8] appears, read: corrected by plasma protein binding in 10% FCS (fraction unbound), read-out: IC50 Ba/F3 KRASG12C (corrected).

Chain of Ba/F3 cells bearing a KRAS G12C mutation (P01116 whole entry G12C, canonical isoform): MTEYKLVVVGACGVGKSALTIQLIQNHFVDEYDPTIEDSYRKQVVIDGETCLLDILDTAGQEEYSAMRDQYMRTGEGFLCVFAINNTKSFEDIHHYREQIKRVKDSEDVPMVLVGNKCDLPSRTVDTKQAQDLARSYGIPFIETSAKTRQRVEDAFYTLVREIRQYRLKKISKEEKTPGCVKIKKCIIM
T1 sequence (P01116 1-169 isoform P01116-2 G12C/C51S/C80L/C118S): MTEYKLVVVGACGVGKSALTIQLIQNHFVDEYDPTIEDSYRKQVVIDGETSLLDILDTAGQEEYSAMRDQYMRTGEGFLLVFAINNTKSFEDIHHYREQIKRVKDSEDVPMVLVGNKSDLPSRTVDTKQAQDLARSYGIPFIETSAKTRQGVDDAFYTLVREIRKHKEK

A word on the IC50: it is the midpoint of a concentration-inhibition curve. Consider `C=CC(=O)N1CCN(c2cc(-c3cc(C4(C)CCCc5sc(N)c(C#N)c54)on3)nc(O[C@@H](C)[C@@H]3CCCN3C)n2)CC1` (some centres unmarked) [Ib-2], for which the IC50 is 2 nM in data set [1] and 3.1 nM in data set [2].
As for `C=CC(=O)N1[C@H](C)CN(c2cc(O[C@@H](C)[C@@H]3CCCN3C)nc(-c3cc([C@@]4(C)CCCc5sc(N)c(C#N)c54)on3)n2)C[C@@H]1C` [Ib-3], the fraction unbound stood at 0.018 in data set [3], 0.004 in data set [4] and 0.078 in data set [6]. Besides, the IC50 in data set [1] came out at 2 nM; in data set [2], 4.1 nM. Further, the GI50 in data set [5] (setting [7]) came out at 3.9 nM; in data set [5] (setting [8]), 0.3 nM.
`C=CC(=O)N1CCC(Oc2cc(O[C@@H](C)[C@@H]3CCCN3C)nc(-c3cc([C@@]4(C)CCCc5sc(N)c(C#N)c54)on3)n2)CC1` [Ib-7]: the fraction unbound is 0.018 in data set [3], 0.007 in data set [4] and 0.127 in data set [6]. In addition, the IC50 in data set [1] worked out at 1.5 nM; in data set [2] it was 0.6 nM. Besides, the GI50 in data set [5] (setting [7]) turned out to be 0.2 nM; in data set [5] (setting [8]), 0.03 nM.
Consider `C=CC(=O)N1CCC(Oc2cc(N3CCN(C)C[C@@H]3C)nc(-c3cc(C4(C)CCCc5sc(N)c(C#N)c54)on3)n2)CC1` (some centres unmarked) [Ib-8], for which the values for the fraction unbound in data set [3], in data set [4] and in data set [6] were 0.014, 0.001 and 0.198, respectively. Moreover, the IC50 in data set [1] was determined as 13 nM; in data set [2], 12.7 nM. Also, the GI50 came to 13.5 nM in data set [5] (setting [7]) and 2.67 nM in data set [5] (setting [8]).
Take `C=CC(=O)N1[C@@H](C)CN(c2nc(-c3cc([C@@]4(C)CCCc5sc(N)c(C#N)c54)on3)nc(O[C@@H](C)[C@@H]3CCCN3C)c2Cl)C[C@@H]1C` [Ib-9]: the fraction unbound was determined as 0.002 in data set [3], 0.001 in data set [4] and 0.026 in data set [6]. Moreover, the IC50 amounted to 4 nM in data set [1] and 11.3 nM in data set [2]. Further, the GI50 in data set [5] (setting [7]) came out at 2.9 nM; in data set [5] (setting [8]), 0.08 nM.
On to `C=C(F)C(=O)N1[C@@H](C)CN(c2nc(-c3cc([C@@]4(C)CCCc5sc(N)c(C#N)c54)on3)nc(O[C@@H](C)[C@@H]3CCCN3C)c2Cl)C[C@@H]1C` [Ib-12], for which the fraction unbound is less than 0.00052 in data set [3], less than 0.0004 in data set [4] and 0.016 in data set [6]. Also, the IC50 in data set [1] came to 74 nM; in data set [2], 830 nM. Besides, the GI50 in data set [5] (setting [7]) turned out to be 67.9 nM; in data set [5] (setting [8]), 1.09 nM.
On to `C=C(F)C(=O)N1CCC(Oc2cc(N3CCN(C)C[C@@H]3C)nc(-c3cc(C4(C)CCCc5sc(N)c(C#N)c54)on3)n2)CC1` (some centres unmarked) [Ib-13], for which the fraction unbound in data set [3] was 0.005; in data set [4] it was less than 0.0005; in data set [6], 0.114. Besides, the IC50 in data set [1] was 278 nM; in data set [2], 1140 nM. In addition, the GI50 in data set [5] (setting [7]) worked out at 350 nM; in data set [5] (setting [8]), 39.9 nM.
Take `COC/C=C/C(=O)N1CCN(c2cc(O[C@@H](C)[C@@H]3CCCN3C)nc(-c3cc(C4(C)CCCc5sc(N)c(C#N)c54)on3)n2)CC1` (some centres unmarked) [Ib-15]: the fraction unbound in data set [3] is 0.041; in data set [4], 0.011; in data set [6], 0.185. Also, the figures for the 50% inhibitory concentration (IC50) in data set [1] and in data set [2] were 17 nM and 32.7 nM, respectively. In addition, the results for the GI50 in data set [5] (setting [7]) and in data set [5] (setting [8]) were 72.4 nM and 13.4 nM, respectively.
In the case of `COC/C=C/C(=O)N1CCN(c2cc(O[C@@H](C)[C@@H]3CCCN3C)nc(-c3cc([C@@]4(C)CCCc5sc(N)c(C#N)c54)on3)n2)CC12CC2` [Ib-16], the fraction unbound is 0.02 in data set [3], 0.002 in data set [4] and 0.044 in data set [6]. Also, the values for the IC50 in data set [1] and in data set [2] were 42 nM and 969 nM, respectively. In addition, the results for the GI50 in data set [5] (setting [7]) and in data set [5] (setting [8]) were 124 nM and 5.45 nM, respectively.
As to `C=CC(=O)N1CCC(Oc2cc(O[C@@H](C)[C@@H]3CCCN3C)nc(-c3cc([C@@]4(C)CCCc5sc(N)c(C#N)c54)no3)n2)CC1` [Ic-6], the IC50 worked out at 1.6 nM in data set [1] and 0.5 nM in data set [2]. The fraction unbound in data set [4] is less than 0.001; in data set [6], 0.093. Besides, the GI50 in data set [5] (setting [7]) stood at 0.7 nM; in data set [5] (setting [8]) it was 0.07 nM.
On to `C=CC(=O)N1CCN(c2cc(-c3cc([C@@]4(C)CCCc5sc(N)c(C#N)c54)sn3)nc(O[C@@H](C)[C@@H]3CCCN3C)n2)CC1` [Id-3], for which the IC50 in data set [1] came out at 1.7 nM; in data set [2] it was 1.1 nM. Further, in data set [5] (setting [7]), the GI50 was less than 1.3 nM.
The like results for `C=C(F)C(=O)N1CCN(c2cc(O[C@@H](C)[C@@H]3CCCN3C)nc(-c3cc(C4(C)CCCc5sc(N)c(C#N)c54)sn3)n2)CC1` (some centres unmarked) [Id-7] were, in that order, 5 nM, 20.5 nM and 5.4 nM.
For `C=C(F)C(=O)N1CCC(Oc2cc(O[C@@H](C)[C@@H]3CCCN3C)nc(-c3cc([C@@]4(C)CCCc5sc(N)c(C#N)c54)sn3)n2)CC1` [Id-8], the fraction unbound was 0.004 in data set [3], less than 0.0009 in data set [4] and 0.352 in data set [6]. For the same molecule, the IC50 is 3 nM in data set [1] and 16.1 nM in data set [2]. Moreover, the GI50 was determined as 4.3 nM in data set [5] (setting [7]) and 1.51 nM in data set [5] (setting [8]).
`COC/C=C/C(=O)N1CCN(c2cc(O[C@@H](C)[C@@H]3CCCN3C)nc(-c3cc([C@@]4(C)CCCc5sc(N)c(C#N)c54)sn3)n2)CC12CC2` [Id-9]: the IC50 in data set [1] amounted to 21 nM; in data set [2] it was 58.9 nM. The values for the fraction unbound in data set [4] and in data set [6] were 0.003 and 0.336, respectively. In addition, the GI50 turned out to be 44 nM in data set [5] (setting [7]) and 14.8 nM in data set [5] (setting [8]).
Take `C=C(F)C(=O)N1CCN(c2nc(OC[C@@H]3CCCN3C)nc3c2CCN(c2cccc4cccc(Cl)c24)C3)C[C@@H]1CC#N` [adagrasib, reference compound]: the fraction unbound is 0.014 in data set [3], 0.004 in data set [4] and 0.43 in data set [6].
